# Entries after “also recorded” stand apart in the source; their conditions may differ.
# Test system: advance progressive cancers refractory to, or relapsed on, all conventional therapies
# Assay: ProGem1 dose escalation clinical study of NUC-1031
# Type: in vivo, human
# Design: CA125 level: unit not given here
# From the text: The following data were generated in clinical studies of NUC-1031 in human patients with advance progressive cancers that are refractory to, or have relapsed on, all conventional therapies that have been used to date. The results clearly illustrate the ability of NUC-1031 to successfully treat refractory cancers.
# Although the primary objectives of the dose escalation part of the study were to determine the Recommended Phase II Dose (RP2D) and safety profile, secondary objectives included determining the PK profile, however effective treatment of patients with a range of refractory cancers has also been observed as part of this study.
# A total of 68 patients have been entered into this dose escalation study, of which 49 were evaluable for clinical response in that they have received at least 2 Cycles of NUC-1031 and were therefore eligible for a RECIST 1.1 assessment.
# NUC-1031 was administered as a 5 to 30 minute intravenous slow bolus injection. • Schedule A: NUC-1031 was administered on days 1, 8, 15 of a 4 weekly Cycle. • Schedule B: NUC-1031 was administered on days 1, 5, 8, 12, 15, 19, of a 4 weekly Cycle. Evaluable Patients [n=49]
# Evaluable patients were patients that received ≥2 Cycles of NUC-1031 and were therefore eligible for a RECIST 1.1 assessment at the end of Cycle 2. Where the disease response duration, measured in months, is followed by a “+” this indicates ongoing disease control as of the latest cut-off date.
# [1] = Patient 040, cholangiocarcinoma, 1,000 then 900 mg/m^2 weekly
# [2] = Patient 041, breast cancer, 900 then 825 mg/m^2 weekly
# [3] = Patient 043, ovarian cancer, 900 then 750 mg/m^2 weekly
# [4] = Patient 044, lung cancer, 900 then 825 mg/m^2 weekly
# [5] = Patient 046, adrenal carcinoma, 1,000, 900, 750, then 625 mg/m^2 weekly
# [6] = Patient 048, ovarian cancer (granulosa cell tumour), 1,000 reduced stepwise to 625 mg/m^2 weekly
# [7] = Patient 052 (204), oesophageal cancer, 900 then 825 mg/m^2 weekly
# [8] = Patient 057 (209), ovarian cancer, 900, 825, then 750 mg/m^2 weekly
# [9] = Patient 058 (210), lung cancer, 825 then 750 mg/m^2 weekly
# [10] = Patient 059 (211), cervical cancer, 825, 750, then 625 mg/m^2 weekly
# [11] = Patient 061 (213), colorectal cancer, 825 mg/m^2 weekly
# [12] = Patient 063 (215), ovarian cancer, 825, 750, then 625 mg/m^2 weekly
# [13] = evaluable patients n = 49, RECIST 1.1
smiles,measurement,setting,value
"C[C@H](NP(=O)(OC[C@H]1O[C@@H](n2ccc(N)nc2=O)C(F)(F)[C@@H]1O)Oc1ccccc1)C(=O)OCc1ccccc1 (stereo partly drawn) [NUC-1031, 2′-deoxy-2′,2′-difluoro-D-cytidine-5′-O-[phenyl (benzoxy-L-alaninyl)] phosphate]",Best response to RECIST,[1],Stable Disease
same,Duration of response to RECIST,[1],4 months
same,Tumour volume,"Patient 040, cholangiocarcinoma, end of Cycle 2 CT scan (85 at base)",82.1
same,CA19.9 level,"Patient 040, cholangiocarcinoma, on 4th June (664 at baseline)",155
same,Adverse events (grade),"Patient 041, breast cancer, 900 mg/m^2 weekly, Cycle 3",fatigue (G3)
same,Best response to RECIST,[2],Stable Disease
same,Duration of response to RECIST,[2],4 months
same,CA 15.3 tumour marker,"Patient 041, breast cancer, at C2 (726 at base)",845
same,CA 15.3 tumour marker,"Patient 041, breast cancer, on 19 May 2014 (726 at base)",824
same,Best response to RECIST,"Patient 042, cholangiocarcinoma, 900 mg/m^2 weekly",Progressive Disease
same,Adverse events (grade),"Patient 042, cholangiocarcinoma, 900 mg/m^2 weekly, days 3-5 following study drug",delayed onset fatigue (G2)
same,Reduction in tumour volume of primary target lesion,"Patient 042, cholangiocarcinoma, end of Cycle 2 CT scan",9%
same,Adverse events (grade),[3],delayed onset fatigue (G2); also recorded: Leg oedema developed to G3
same,Best response to RECIST,[3],Stable Disease
same,Duration of response to RECIST,[3],13 months
same,CA125 level,"Patient 043, ovarian cancer, beginning of Cycle 2 (1.099 at baseline as printed)",783
same,Reduction in tumour volume from baseline,"Patient 043, ovarian cancer, end of Cycle 6 CT scan",10%
same,CA125 level,"Patient 043, ovarian cancer, on 15th July (1,099 at baseline)",910
same,Volume of fluid drained from the pleural effusion,"Patient 043, ovarian cancer, on treatment (was 300 ml per week)",150 ml per week
same,Adverse events (grade),"Patient 044, lung cancer, 900 mg/m^2 weekly",G3 lung infection
same,Best response to RECIST,[4],Stable Disease
same,Duration of response to RECIST,[4],5 months
same,Reduction in tumour volume,"Patient 044, lung cancer, end of Cycle 2 CT scan",10%
same,Best response to RECIST,[5],Stable Disease
same,Duration of response to RECIST,[5],11 months
same,Adverse events (grade),"Patient 046, adrenal carcinoma, Cycle 1 at 1,000 mg/m^2, following Cycle 8 D1 at 900 mg/m^2","delayed onset fatigue, nausea and vomiting (all G3); also recorded: neutropenia (G2)"
same,Reduction in tumour volume from baseline,"Patient 046, adrenal carcinoma, end of Cycle 6 CT scan",12.6%
same,Best response to RECIST,[6],Stable Disease
same,Duration of response to RECIST,[6],8 months
same,inhibin B,"Patient 048, ovarian cancer, August (1,038 prior to study entry)",1148
same,inhibin B,"Patient 048, ovarian cancer, July 2014 (1,038 prior to study entry)","1,106"
same,inhibin B,"Patient 048, ovarian cancer, September (1,038 prior to study entry)",1053
same,Adverse events (grade),"Patient 048, ovarian cancer, following Cycle 1 Day 1 at 1,000 mg/m^2, neutropenia (G3) at Cycle 4","ALT, (G3, a DLT); also recorded: AST and neutropaenia (G2); also recorded: ALP (G1); also recorded: neutropenia (G3)"
same,Adverse events (grade),"Patient 050 (202), oesophageal cancer, 900 mg/m^2, following Cycle 1 Day 1","ALT and fatigue, both G3"
same,Best response to RECIST,"Patient 050 (202), oesophageal cancer, 900 mg/m^2 weekly",Progressive Disease
same,Best response to RECIST,"Patient 051 (203), anal cancer, 900 mg/m^2 weekly",Progressive Disease
same,Best response to RECIST,[7],Stable Disease
same,Duration of response to RECIST,[7],5 months
same,Best response to RECIST,"Patient 053 (205), colon cancer, 900 mg/m^2 weekly",Progressive Disease
same,Best response to RECIST,"Patient 055 (207), ovarian cancer, 900, 825, then 625 mg/m^2 weekly",Stable Disease
same,CA125 level,"Patient 055 (207), ovarian cancer, January 2015 (36 at baseline)",24
same,Reduction in tumour volume from baseline,"Patient 055 (207), ovarian cancer, end of Cycle 6 CT scan",18%
same,Duration of response to RECIST,"Patient 055 (207), ovarian cancer, ongoing, 900, 825, then 625 mg/m^2 weekly",≥ 10 months
same,Adverse events (grade),"Patient 057 (209), ovarian cancer, 900 mg/m^2, Cycle 1 Day 15",anaemia and ascites both G3
same,Best response to RECIST,[8],Stable Disease
same,Duration of response to RECIST,[8],5 months
same,Reduction in tumour volume from baseline,"Patient 057 (209), ovarian cancer, end of Cycle 4 CT scan",10%
same,Adverse events (grade),"Patient 058 (210), lung cancer, 825 mg/m^2, Cycle 1","G3 transaminitis (ALT), a DLT"
same,Best response to RECIST,[9],Stable Disease
same,Duration of response to RECIST,[9],4 months
same,Best response to RECIST,[10],Stable Disease
same,Duration of response to RECIST,[10],7 months
same,Adverse events (grade),"Patient 059 (211), cervical cancer, thrombocytopenia in Cycle 1 at 825 mg/m^2, fatigue in Cycle 3 at 750 mg/m^2",thrombocytopenia (G3); also recorded: fatigue (G3)
same,Best response to RECIST,"Patient 060 (212), pancreatic cancer, 825 mg/m^2 weekly",Progressive Disease
same,Adverse events (grade),"Patient 060 (212), pancreatic cancer, 825 mg/m^2 weekly, after Cycle 1","ALP, AST, ALT, all G3"
same,Best response to RECIST,[11],Stable Disease
same,Duration of response to RECIST,[11],3 months
same,Reduction in tumour volume,"Patient 061 (213), colorectal cancer, end of Cycle 2 CT scan",2%
same,Best response to RECIST,[12],Stable Disease
same,Duration of response to RECIST,[12],3 months
same,Adverse events (grade),"Patient 063 (215), ovarian cancer, Cycle 3 at 750 mg/m^2",fatigue (G3)
same,Best response to RECIST,"Patient 064 (216), trophoblastic cancer, 825 mg/m^2 weekly",Progressive Disease
same,Best response to RECIST,"Patient 066 (218), colorectal cancer, 825, 750, then 625 mg/m^2 weekly",Stable Disease
same,Duration of response to RECIST,"Patient 066 (218), colorectal cancer, ongoing, 825, 750, then 625 mg/m^2 weekly",≥ 8 months
same,Reduction in tumour volume from baseline,"Patient 066 (218), colorectal cancer, unscheduled CT scan on 30th December",16%
same,Adverse events (grade),"Patient 067 (219), osteosarcoma, 825 mg/m^2 weekly, towards the end of each Cycle",neutropenia G2
same,Best response to RECIST,"Patient 067 (219), osteosarcoma, 825 then 750 mg/m^2 weekly",Stable Disease
same,Increase (tumour) from baseline,"Patient 067 (219), osteosarcoma, EOS CT scan",1%
same,Duration of response to RECIST,"Patient 067 (219), osteosarcoma, ongoing, 825 then 750 mg/m^2 weekly",≥ 7 months
same,Best response to RECIST,"Patient 068 (220), lung cancer, 825 mg/m^2 weekly",Progressive Disease
same,Best response to RECIST,"Patient 069 (221), colorectal cancer, 825 reduced stepwise to 500 mg/m^2 weekly",Stable Disease
same,Adverse events (grade),"Patient 069 (221), colorectal cancer, Cycle 3 at 825 mg/m^2, after Cycle 4 D1 at 750 mg/m^2, Cycle 5 at 675 mg/m^2","neutropenia (G4); also recorded: neutropenia and leukopenia, G3; also recorded: neutropenia and leukopenia, G2"
same,Response on PET scan,"Patient 069 (221), colorectal cancer, PET scan on 30/10, 825 mg/m^2 weekly",Partial Response
same,Reduction in tumour volume from baseline,"Patient 069 (221), colorectal cancer, end of C2 CT scan",11%
same,Reduction in tumour volume from baseline,"Patient 069 (221), colorectal cancer, end of C4 CT scan",26%
same,Duration of response to RECIST,"Patient 069 (221), colorectal cancer, ongoing, 825 reduced stepwise to 500 mg/m^2 weekly",≥ 7 months
same,Best Overall Response: Partial Responses,[13],5 (10%) patients (%)
same,Best Overall Response: Progressive Disease,[13],11 (22%) patients (%)
same,Best Overall Response: Stable Disease,[13],33 (67%) patients (%)

# — US11400107B2, “Cancer treatments” (NuCana plc, priority 2016, dated 2022)
